Experimental data reported in publication PMC8343220, “The selectivity of α‐adrenoceptor agonists for the human α1A, α1B, and α1D‐adrenoceptors” (Pharmacology Research & Perspectives, 2021).
Entries after “also recorded” stand apart in the source; their conditions may differ. Like-named read-outs stand apart in the source and are kept apart here. Marks after values point to notes of the source that are not given here.

Tests used:
[1] = tested on: parental CHO cell line without any transfected receptors; assay: ^3H‐cAMP accumulation, parent CHO cells without transfected receptors; assay type: cell-based, Chinese hamster
[2] = molecular target: T1, human α1D‐adrenoceptor (full length) (Homo sapiens, UniProt P25100); assay: ^3H‐prazosin whole‐cell radioligand binding, CHO‐α1D cells
T1 construct: human α1D‐adrenoceptor (full length) were used; expressed in transfected cells; host or cells: CHO-K1
T1 sequence (P25100 1-572): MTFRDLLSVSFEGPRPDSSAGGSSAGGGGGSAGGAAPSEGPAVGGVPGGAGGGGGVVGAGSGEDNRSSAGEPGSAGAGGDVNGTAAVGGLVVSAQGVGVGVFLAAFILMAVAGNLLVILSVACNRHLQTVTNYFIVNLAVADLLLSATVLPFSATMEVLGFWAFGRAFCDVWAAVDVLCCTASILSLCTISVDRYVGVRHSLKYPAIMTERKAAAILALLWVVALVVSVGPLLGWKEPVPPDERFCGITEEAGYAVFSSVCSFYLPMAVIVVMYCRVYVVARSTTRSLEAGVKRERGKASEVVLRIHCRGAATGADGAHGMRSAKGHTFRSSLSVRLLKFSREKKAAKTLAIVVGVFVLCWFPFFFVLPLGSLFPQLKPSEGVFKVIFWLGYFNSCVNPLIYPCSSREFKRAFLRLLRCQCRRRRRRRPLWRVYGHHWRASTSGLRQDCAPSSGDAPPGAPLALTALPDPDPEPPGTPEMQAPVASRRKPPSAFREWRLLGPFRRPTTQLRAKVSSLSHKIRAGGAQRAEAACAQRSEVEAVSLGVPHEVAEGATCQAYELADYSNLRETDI

human α1B‐adrenoceptor [3] = molecular target: T2, human α1B‐adrenoceptor (Homo sapiens, UniProt P35368); assay: ERK1/2‐phosphorylation (Surefire Alphascreen), CHO‐α1B cells; assay type: cell-based
T2 construct: expressed in transfected cells; host or cells: CHO-K1
T2 sequence (P35368 1-520): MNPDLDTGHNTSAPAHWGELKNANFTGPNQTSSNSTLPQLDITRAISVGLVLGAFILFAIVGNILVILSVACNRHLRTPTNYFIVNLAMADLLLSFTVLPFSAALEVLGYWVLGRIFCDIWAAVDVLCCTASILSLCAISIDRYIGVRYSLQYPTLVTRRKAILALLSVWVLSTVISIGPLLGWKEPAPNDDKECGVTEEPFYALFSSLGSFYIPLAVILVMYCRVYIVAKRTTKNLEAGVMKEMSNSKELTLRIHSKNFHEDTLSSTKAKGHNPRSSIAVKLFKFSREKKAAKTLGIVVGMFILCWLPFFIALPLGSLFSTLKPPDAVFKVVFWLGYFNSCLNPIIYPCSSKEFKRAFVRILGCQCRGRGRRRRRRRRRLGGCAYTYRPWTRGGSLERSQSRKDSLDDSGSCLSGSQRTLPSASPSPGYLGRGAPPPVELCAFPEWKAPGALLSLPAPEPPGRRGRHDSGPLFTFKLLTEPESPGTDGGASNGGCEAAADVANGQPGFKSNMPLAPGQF

[4] = molecular target: T1, human α1D‐adrenoceptor (full length); assay: ^3H‐cAMP accumulation in the presence of 10 μM forskolin, CHO‐α1D cells; assay type: cell-based
[5] = molecular target: T1, human α1D‐adrenoceptor (full length); assay: Intracellular free calcium mobilization, CHO‐α1D cells; assay type: cell-based
[6] = molecular target: T1, human α1D‐adrenoceptor (full length); assay: ERK1/2‐phosphorylation (Surefire Alphascreen), CHO‐α1D cells; assay type: cell-based
human α1A‐adrenoceptor [7] = molecular target: T3, human α1A‐adrenoceptor (Homo sapiens, UniProt P35348); assay: ERK1/2‐phosphorylation (Surefire Alphascreen), CHO‐α1A cells; assay type: cell-based
T3 construct: expressed in transfected cells; host or cells: CHO-K1
T3 sequence (P35348 1-466): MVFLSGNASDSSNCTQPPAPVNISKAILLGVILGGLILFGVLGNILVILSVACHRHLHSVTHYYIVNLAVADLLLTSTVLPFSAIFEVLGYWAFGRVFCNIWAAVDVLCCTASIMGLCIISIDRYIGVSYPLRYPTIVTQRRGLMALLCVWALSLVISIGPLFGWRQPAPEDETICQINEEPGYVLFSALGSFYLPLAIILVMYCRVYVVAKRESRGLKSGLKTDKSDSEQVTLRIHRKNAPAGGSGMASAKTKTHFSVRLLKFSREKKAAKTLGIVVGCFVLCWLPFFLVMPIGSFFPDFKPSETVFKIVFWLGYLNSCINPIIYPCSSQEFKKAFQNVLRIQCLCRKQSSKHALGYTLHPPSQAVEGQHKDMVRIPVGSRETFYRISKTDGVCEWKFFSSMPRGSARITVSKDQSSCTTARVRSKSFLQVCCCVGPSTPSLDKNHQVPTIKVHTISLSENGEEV

human α1A‐adrenoceptor [8] = molecular target: T3, human α1A‐adrenoceptor; assay: ^3H‐cAMP accumulation, CHO‐α1A cells; assay type: cell-based
human α1A‐adrenoceptor [9] = molecular target: T3, human α1A‐adrenoceptor; assay: Intracellular free calcium mobilization, CHO‐α1A cells; assay type: cell-based
[10] = molecular target: T1, human α1D‐adrenoceptor (full length); assay: ^3H‐cAMP accumulation, CHO‐α1D cells; assay type: cell-based; settings: cAMP accumulation without forskolin
human α1B‐adrenoceptor [11] = molecular target: T2, human α1B‐adrenoceptor; assay: Intracellular free calcium mobilization, CHO‐α1B cells; assay type: cell-based
[12] = tested on: parental CHO cell line without any transfected receptors; assay: Forskolin‐stimulated cAMP accumulation, parent CHO cells without transfected receptors; assay type: cell-based, Chinese hamster
human α1A‐adrenoceptor [13] = molecular target: T3, human α1A‐adrenoceptor; assay: ^3H‐prazosin whole‐cell radioligand binding, CHO‐α1A cells
human α1A‐adrenoceptor [14] = molecular target: T3, human α1A‐adrenoceptor; assay: ^3H‐cAMP accumulation in the presence of 10 μM forskolin, CHO‐α1A cells; assay type: cell-based
human α1B‐adrenoceptor [15] = molecular target: T2, human α1B‐adrenoceptor; assay: ^3H‐prazosin whole‐cell radioligand binding, CHO‐α1B cells
[16] = tested on: parental CHO cell line without any transfected receptors; assay: ERK1/2‐phosphorylation, parent CHO cells without transfected receptors; assay type: cell-based, Chinese hamster
[17] = tested on: parental CHO cell line without any transfected receptors; assay: Intracellular calcium mobilization, parent CHO cells without transfected receptors; assay type: cell-based, Chinese hamster
human α1B‐adrenoceptor [18] = molecular target: T2, human α1B‐adrenoceptor; assay: ^3H‐cAMP accumulation, CHO‐α1B cells; assay type: cell-based; settings: CHO‐α1B cells
human α1B‐adrenoceptor [19] = molecular target: T2, human α1B‐adrenoceptor; assay: ^3H‐cAMP accumulation in the presence of 10 μM forskolin, CHO‐α1B cells; assay type: cell-based

Structure (SMILES): C=C[C@@]1(C)CC(=O)[C@]2(O)[C@@]3(C)[C@@H](O)CCC(C)(C)[C@@H]3[C@H](O)[C@H](OC(C)=O)[C@@]2(C)O1 [forskolin]
- cAMP accumulation response fold over basal ([1]; parent CHO cells, 10μM, n=6): 39.5 ± 3.2 fold over basal

Structure (SMILES): Cc1cc(C(C)(C)C)cc(C)c1CC1=NCCN1 [Xylometazoline]
- Affinity selectivity ratio α1B vs α1D [2]: 1.2 fold
- Kd [2]: 5890 nM
- Kd ([2]; 3H‐prazosin binding Log KD): 5890 nM
- ERK1/2‐phosphorylation % PDBu (human α1B‐adrenoceptor [3]): 66.2 ± 6.0%
- IC50 [4]: 29.5 nM
- % inhibition of forskolin‐stimulated cAMP ([4]; CHO‐α1D cells, decrease in forskolin‐stimulated cAMP accumulation (footnote b)): *26.5 ± 1.1%
- Effect on cAMP accumulation in the presence of forskolin, CHO‐α1D cells ([4]; not α1‐mediated): decrease in cAMP accumulation; also recorded: inhibitory cAMP response
- Intracellular calcium release % Ionomycin at 100 µM [5]: 18.6 ± 2.0%
- ERK1/2‐phosphorylation % PDBu [6]: 70.8 ± 7.8%
- EC50 (human α1A‐adrenoceptor [7]): 3.8 nM
- ERK1/2‐phosphorylation % PDBu (human α1A‐adrenoceptor [7]): 98.8 ± 5.1%
- ERK1/2‐phosphorylation potency in CHO‐α1A cells relative to untransfected parent CHO cells (human α1A‐adrenoceptor [7]): > 10 fold
- EC50 (human α1A‐adrenoceptor [8]): 126 nM
- cAMP accumulation % forskolin (human α1A‐adrenoceptor [8]; CHO‐α1A cells, % of 10 µM forskolin response): 32.4 ± 5.7%
- EC50 (human α1A‐adrenoceptor [9]): 2.51 nM
- Intracellular calcium release % ionomycin (human α1A‐adrenoceptor [9]): 64.4 ± 2.7%
- Log efficacy ratio KD /EC50 (human α1A‐adrenoceptor [9]): 1.66
- cAMP Log EC50 [10]: No response
- Intracellular calcium release % Ionomycin at 100 µM (human α1B‐adrenoceptor [11]): 13.6 ± 3.3%
- % inhibition of forskolin-stimulated cAMP ([12]; CHO cells without transfected receptors, footnote *: % inhibition): 21.0 ± 2.4%*
- IC50 ([12]; Cricetulus griseus, CHO cells without transfected receptors, footnote *: log IC50, read-out: log IC50, decrease in forskolin-stimulated cAMP accumulation (converted)): 66.1 nM
- Effect on cAMP accumulation in the presence of forskolin, parent cells ([12]; untransfected cells): decrease in cAMP accumulation
- Affinity selectivity ratio α1A vs α1B (human α1A‐adrenoceptor [13]): 60.3 fold
- Affinity selectivity ratio α1A vs α1D (human α1A‐adrenoceptor [13]): 51.3 fold
- Kd (human α1A‐adrenoceptor [13]): 115 nM
- EC50 (human α1A‐adrenoceptor [14]): 30.2 nM
- cAMP accumulation (in presence of forskolin) Fold increase (human α1A‐adrenoceptor [14]; CHO‐α1A cells, fold increase of the forskolin response): 2.00 ± 0.09 fold
- Kd (human α1B‐adrenoceptor [15]): 6920 nM
- Kd (human α1B‐adrenoceptor [15]; Log KD, ^3H‐prazosin binding): 6920 nM
- Emax ([16]; Cricetulus griseus, CHO cells without transfected receptors, maximal response as % of PDBu (10μM) response, mean ± s.e.m., read-out: ERK1/2-phosphorylation % PDBu): 56.2 ± 5.9%
- EC50 ([16]; Cricetulus griseus, CHO cells without transfected receptors, mean ± s.e.m., read-out: ERK1/2-phosphorylation Log EC50 (converted)): 89.1 nM
- ERK1/2‐phosphorylation response in parent CHO cells ([16]; untransfected cells): stimulated ERK1/2‐phosphorylation responses
- Emax ([17]; Cricetulus griseus, CHO cells without transfected receptors, response at maximum concentration used (c2), as % of ionomycin (10μM) response, mean ± s.e.m., read-out: Intracellular calcium release % ionomycin): 15.8 ± 2.7%
- cAMP accumulation Log EC50 (human α1B‐adrenoceptor [18]): No response
- cAMP accumulation % forskolin (human α1B‐adrenoceptor [18]; % forskolin maximum response): No response
- IC50 (human α1B‐adrenoceptor [19]): 9.12 nM
- % inhibition of forskolin‐stimulated cAMP (human α1B‐adrenoceptor [19]; CHO‐α1B cells, footnote c): 13.5 ± 1.8%a
- Effect on cAMP accumulation in the presence of forskolin, CHO‐α1B cells (human α1B‐adrenoceptor [19]; not α1‐mediated): decrease in cAMP accumulation

Structure (SMILES): COc1ccccc1N1CCN(CC2CN3C(=O)N(C)c4ccccc4C3=N2)CC1 (centres unmarked) [2-MPMDQ]
- cAMP accumulation (in presence of forskolin) % forskolin-stim cAMP [12]: No response
- cAMP accumulation (in presence of forskolin) Log EC50 [12]: No response
- ERK1/2-phosphorylation % PDBu [16]: No response
- Intracellular calcium release % ionomycin [17]: No response
- cAMP accumulation % forskolin [1]: No response
